Experimental data as given in US10947366B2, “Hollow mineral tubes comprising essential oils and uses thereof” (TECHNION RESEARCH & DEVELOPMENT FOUNDATION LTD., priority 2015, dated 2021).
Where two headings read alike, the source gives them in different places.

Experiments:
[1] = Thermal gravimetric analysis (TGA) of EOs and HNTs/EO hybrids, thermal stability; type: physicochemical; conditions: 20° C./min, nitrogen
Method: (§1) Hybrids were characterized by thermal gravimetric analysis (TGA) using TGA-Q5000 system (TA instruments, USA) at a heating rate of 20° C./min under nitrogen atmosphere, starting at room temperature up to 600° C.
Thermal gravimetric analysis (TGA) is performed using TGA-Q5000 system (TA Instruments, USA). Samples are heated under nitrogen atmosphere from room temperature to 600° C. at a heating rate of 20° C. min^−1. The results are analyzed using Universal […] version 4.5A build 4.5.0.5 software.

E. coli (ATCC 8739) = assay: Chequerboard antimicrobial susceptibility to pure carvacrol, thymol and their combinations; type: cell-based; conditions: Escherichia coli, ATCC8739
Method: Bacterial susceptibility to pure carvacrol, thymol and their mixtures was characterized by the standard chequerboard procedure for antimicrobial susceptibility for combination of antimicrobials (Franzot & Casadevall, 1997; Pei, Zhou, Ji, & Xu, 2009).
Accordingly, in exemplary procedures, stock aqueous emulsions of thymol and carvacrol (at a concentration of 6400 mg L^−1 in MillyQ water, […]) are prepared by ultrasonication (Vibra cell VCX 750, Sonics & Materials Inc., USA) for 3 min at a constant amplitude of 40%, on ice bath using small amounts of Tween-80. […] The plate is sealed with SealPlate® (Excel Scientific Inc., Victorville, CV, US) incubated at 37° C. for 4 h under gentle shacking in a microplate reader (Varioskan Flash, Thermo Scientific, USA). Absorbance measurements are recorded at 600 nm every 3 min. […]
The MIC of carvacrol and thymol and their combination against E. coli (ATCC 8739) were determined using the standard chequerboard procedure for antimicrobial susceptibility for combination of antimicrobials (Franzot & Casadevall, 1997; Pei et al., 2009).
FIG. 13A presents characteristic E. coli growth curves in media containing a constant thymol concentration (75 mg L^−1) and varying carvacrol concentrations (0 to 200 mg L^−1). […] While at a lower concentration (100 mg L^−1), a profound lag time of ˜200 min in bacterial growth is recorded. […]

E. coli = assay: Agar diffusion assay (Kirby-Bauer disk diffusion) of LDPE-based films; type: cell-based; conditions: dose additivity model
Method: Fresh LDPE/(HNTs/CV-TY), LDPE/(HNTs/CV) and LDPE/TY films (12 mm in diameter and 150 μm thick) were conditioned at 60° C. for different time intervals to accelerate the release of the EOs from the films. The films were sampled after different durations, and the content of the respective EOs were determined by Fourier-transform infrared spectroscopy in transmission mode. Subsequently, the discs were placed onto the surface of a Luria broth (LB) agar plate seeded with 10^8 CFU ml^−1 of E. coli culture (0.1 mL). […] All tests were performed in triplicates, and at least 15 different specimens are studied for each film type of each. Neat LDPE films were used as a negative control.
Interactions between CV and TY were assessed based on the results obtained by the agar diffusion assay studies. Two common models of synergistic activity are applied:
(1) effect additivity (Axelrad, Howard, & McLean, 2002) and (2) dose additivity (Berenbaum, 1978). […] The second model is based on building curves that illustrate various combinations of two antimicrobials that produce the same effect. Antimicrobial doses of the same efficiency are connected by the additivity line that predicts a zero interaction. Deviations from this prediction can be interpreted as antagonism or synergy. […]

[2] = at 20° C.-25° C.; cited from earlier work
[3] = EO content in films after melt compounding and processing, determined by TGA; type: physicochemical; conditions: pure EO in LDPE film without HNTs, initial 4 %
Method: as §1
Table 4 below summarizes the carvacrol and HNTs content in different films (following melt compounding and processing) determined by TGA (initial carvacrol content, pre-processing, was 4 wt % and initial HNTs content was 2 wt %).
The resulting films were studied by thermal gravimetric analysis (TGA) in order to examine the effect of the HNTs carriers on the residual carvacrol content following the harsh high-temperature melt-compounding and processing of PA. Table 5 summarizes the results of these experiments showing carvacrol content in different carvacrol-containing films, determined by TGA.
The EOs content and distribution within the LDPE matrix are important parameters, crucial in determining the mechanical and antimicrobial performance of the nanocomposite systems (R. Shemesh et al., 2015). Thus, the total volatile content within the LDPE-based films was investigated using TGA, and the results are summarized in Table 14 showing carvacrol and thymol concentrations in different LDPE-based films as determined by TGA and FTIR spectroscopy.

| Structure (SMILES) | temperature at which weight loss (evaporation) of the EO is completed [1] | MIC (E. coli (ATCC 8739)) [µg/mL] | in-film EO concentration giving 19 mm inhibition zone (E. coli) [%] | vapor pressure [2] [mmHg] | reduction of EO concentration during high-temperature processing [3] [%] | MIC (E. coli (ATCC 8739); LB medium, 37° C., 4 h, inhibition = lag time above 200 min, read-out: MIC) [µg/mL] |
| --- | --- | --- | --- | --- | --- | --- |
| Cc1ccc(C(C)C)cc1O [carvacrol, Carvacrol] | about 165 °C | 200 | 1.5 | 0.023 | 55 | – |
| CC(C)=CCCC(C)=CC=O [citral, Citral] | – | – | – | 0.22 | – | – |
| C=CC(C)(O)CCC=C(C)C (centres unmarked) [linalool, Linalool] | – | – | – | 0.17 | – | – |
| Cc1ccc(C(C)C)c(O)c1 [thymol, Thymol] | – | – | 1.4 | 0.002 | 35 | 300 |
